Drawing on a melting point compilation (Tetko et al.; mined from patent text by program, amines drawn as free bases though some values may be those of a salt), this text covers melting point for 65 compounds.

As a reminder, the melting point is the temperature of the solid-liquid transition.

A value given as a limit tells only on which side of the number the result lay.

Regarding `CCc1nn(CC)c(C(N)=O)c1Cc1ccc2oc(-c3ccccc3C(=O)O)c(Br)c2c1`, the melting point is 171 to 172 °C. For `Oc1nsc2c1CCCC2`, the melting point lay within 157 to 158 °C.

The compound `O=[N+]([O-])c1cc2c(c3ccc(S(=O)(=O)NCCO)cc13)C(CCl)CN2` (stereo not given) displayed a melting point of 173 to 174 °C. Take `OC1=Cc2ccccc2C=Cc2ccccc21`: the melting point was in the range of 120 to 121 °C.

In the case of `N#Cc1c(-c2ccc(Cl)c(Cl)c2)[nH]c(C(F)(F)F)c1C(F)(F)F`, the melting point is 205 to 208 °C.

Compound `COC(=O)C1=C(C#N)NC(C)=C(C(=O)OC(C)C)C1c1ccccc1[N+](=O)[O-]` (stereo not given) showed a melting point of 176 °C. In the case of `CC(=O)CCCCCNC(=O)Nc1ccccc1CCc1cc(C(C)(C)C)c(O)c(C(C)(C)C)c1` it was 73 to 76 °C; in that of `COc1cc(Cn2c(-c3ccc(OCc4ccccc4)cc3)c(C)c3cc(OCc4ccccc4)ccc32)ccc1OCCBr`, 150 to 152 °C; in that of `O=CCN1C(=O)c2ccccc2C1=O`, 114 °C. The result for `CC(=O)N1CCC(CCC(=O)c2cc3c4c(c2)CCN4C(=O)CC3)CC1` reads 157 to 159 °C; that for `N#Cc1ccc(C=Cc2ccccn2)cc1`, 98 °C. With `Cc1cc(-c2nc3ccccc3c(=O)n2-c2ccc(C(C)C)cc2)cc(C)c1OCCO`, the melting point lay within 160 to 162 °C. In the case of `BrCCCCn1c2ccccc2c2ccccc21` it was 102 to 104 °C; in that of `Nc1ccc(N2CCN(CCC3(Cc4ccc(F)cc4)OCCO3)CC2)nc1N`, 118 to 119 °C. As for `CN1Cc2c(cc3ccc4c(c3c2-c2ccc3c(c2)OCO3)OCO4)C1=O`, the melting point lay in the range of 234 to 236 °C.

`c1ccc(C2CC(n3cncn3)c3ccccc3N2)cc1` (stereo not given) registered a melting point of 162 to 164 °C. In the case of `FCCOc1cccc(CBr)c1OCCF` it was 99 to 100 °C; in that of `ON=c1cc(-c2cnccn2)ss1`, 262 °C; in that of `O=C(O)Cc1c(-c2ccc(Cl)cc2)nn(-c2ccccc2)c1-c1ccc(Cl)cc1`, 204 to 206 °C. The compound `Nc1ccccc1Nc1ccc(C(=NO)c2ccccc2)cc1` had a melting point of 89 to 91 °C.

Compound `COC(=O)C(NS(=O)(=O)c1ccc(-c2ccc(NC(=O)c3cc4ccccc4o3)cc2)cc1)C(C)C` (stereo not given) returned a melting point of 195 to 200 °C. `CC(=O)NCC(C)(C)c1ccc2nc(-c3ccncc3)[nH]c2c1` registered a melting point of 219 to 225 °C.

For the compound `CC(C)(C)c1cc(C(=O)Nc2cnc3ccc(Cl)cc3c2-c2ccccc2)cc(C(C)(C)C)c1O`, the melting point is 232 to 235 °C. On to `CC(=O)c1ccc(NS(C)(=O)=O)c(Oc2ccccc2F)c1`, for which the melting point fell in the range of 92 to 94 °C. In turn, `CCCCCCCCCCCCCCCCOCC(CO)COC(c1ccccc1)(c1ccccc1)c1ccccc1` (stereo not given) had a melting point of 38 °C.

For the compound `OC1(c2ccc3c(c2)OCO3)CCNCC1`, the melting point was 135 to 138 °C. The compound `CN(CCO)C(c1ccc(Cl)cc1)c1ccc(Cl)cc1` returned a melting point of 49 to 50 °C. Compound `O=C[C@H]1CC[C@H](c2ccc(F)cc2)CC1` yielded a melting point of less than 30 °C. In the case of `CCCC(=O)C(=O)C(CC1CCCCC1)NC(=O)C(CC(C)C)NC(=O)C(Cc1ccccc1)NC(=O)C1CCCC1` (stereo not given) it was 152 to 161 °C; in that of `N#Cc1ccc(C(=O)NCc2nn(-c3ccccc3Cl)c(-c3ccc(Cl)cc3)c2C#N)cc1`, 118 °C; in that of `CCCCOCCOc1ccc(-c2cc3c4c(c2)OCCN4CCCC(C(=O)O)=C3)cc1`, 205 to 209 °C. In the case of `CSCCN(c1ccc(Cl)cc1[N+](=O)[O-])S(=O)(=O)c1ccc(C)cc1` it was 94.5 to 95.5 °C. The result for `CC(=O)Oc1cc(-n2c(=O)cc(C(F)(F)F)n(C)c2=O)c(F)cc1Cl` reads 99 to 101 °C; that for `Nc1ccccc1C(=O)N1CCN(CCc2ccc(Cl)cc2)CC1`, 108 to 109 °C. `CCOC(=O)/C=C/c1cccc(C2COc3c(C)c(C)c(NC(=O)CC(C)(C)C)c(C)c32)c1` (stereo not given) yielded a melting point of 199 to 200 °C.

In turn, `COc1cc(CCCCC2OC(=O)NC2=O)ccc1OCc1csc(/C=C/c2ccccc2)n1` (stereo not given) showed a melting point of 167 to 168 °C.

`Cc1c2n(c(=O)n(Cc3ccccc3)c1=O)CCCS2`: the melting point was in the range of 141 to 142 °C. In the case of `COCCN(CCOC)c1ccc(Nn2c(C)ccc2C)nn1` it was 112 to 114 °C. `Cc1nc(-c2cc(C)c(OCCCc3cnc(C)s3)c(C)c2)no1` showed a melting point of 60 to 62 °C.

Compound `O=C(O)[C@H](Cc1ccc(OCc2ccccc2)cc1)NS(=O)(=O)c1ccc(F)cc1` showed a melting point of 138 to 139 °C. In turn, `CC(CCCCCCCCCCCCC(=O)O)CC(=O)O` (stereo not given) returned a melting point of 77 to 78 °C.

Consider `COc1cc2[nH]c(=O)sc2cc1OC`, for which the melting point fell in the range of 192 to 193 °C. For `C#Cc1cccc(Oc2nc(Oc3cccc(C#C)c3)nc(-c3ccccc3)n2)c1`, the melting point is 139 to 144 °C. As for `Cc1ccccc1N1CCc2c(N(C)C)nc3c(C)cccc3c21`, the melting point lay within 120 to 121 °C. Compound `COc1cc(N)c(Cl)cc1-c1nn(C2CCN(CC3CCCCC3)CC2)c(=O)o1` gave a melting point of 186 to 187 °C. `O=C1NC2CCC1NC2=O` registered a melting point of 275 to 277 °C. Regarding `COc1ccc(OC)c(S(=O)(=O)c2ccc(Cl)cc2NC(=O)N[C@@H](Cc2ccc(NC(=O)c3c(Cl)cncc3Cl)cc2)C(=O)O)c1`, the melting point is 168 °C. In the case of `Fc1ccc2[nH]cc(C3CCC4(CC3)OCCO4)c2c1` it was 183 to 185 °C; in that of `COc1cc2c(-c3cc4cc(F)cnc4[nH]3)cn(C)c2cc1OC`, 283 °C. `NC(=NO)c1ccc(O)c(O)c1` displayed a melting point of 193 °C. In the case of `CCOC1C=CC(Cl)=CC1(C)S(N)(=O)=O` (stereo not given) it was 153 to 155 °C; in that of `CCNC(=O)CNC(=S)c1cccnc1`, 136 to 138 °C. In the case of `N#CC(CCOc1ccccc1)(Cn1cncn1)c1ccccc1` (stereo not given) it was 64 to 66 °C; in that of `CCOC(=O)C(C)Oc1ccc(-c2nc(-c3ccc(OC(C)C(=O)OCC)cc3O)nc(-c3ccc(OC(C)C(=O)OCC)cc3O)n2)c(O)c1` (stereo not given), 115 to 120 °C. The result for `O=C(O)C1CC1c1cc(=O)c2ccc3ccccc3c2o1` (stereo not given) reads 286 to 288 °C. Regarding `O=C(O)c1oc(-c2ccccc2Cl)cc(=O)c1Br`, the melting point is 205 to 207 °C. On to `Cc1cccc(C)c1NCC(=O)c1ccc(Cl)cc1`, for which the melting point came to 82 °C. `COc1cc(I)c(C(C)=O)cc1O` came in with a melting point of 109 to 111 °C. For `CCOc1cc(-n2ccnc2)ccc1C#N`, the melting point was 134 to 136 °C. In turn, `COC(=O)CCc1cc2cc(Cl)c(Cl)cc2[nH]1` yielded a melting point of 142 °C. For `CC1(C)OC(=O)C(=CNc2ncnc3ccccc23)C(=O)O1`, the melting point lay within 191 to 193 °C. The result for `CCN1CCN(C(=O)c2ccc([N+](=O)[O-])cc2C)CC1` reads 96 to 99 °C.

The compound `Nc1n[nH]cc1S(=O)(=O)c1ccccc1` registered a melting point of 159 to 161 °C. In the case of `CCCCC(=N)NC(=O)Nc1ccccc1` it was 156 °C; in that of `Cc1cc(C(=O)NN=C(N)CS(=O)(=O)c2ccccc2)oc1C`, 197 to 199 °C.
